From ChEMBL document CHEMBL1201862, “PubChem BioAssay data set” (2004)
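Results reflect a 48-hour exposure of cells in 96-well plates to compound at five concentrations. The concentration for 50% growth inhibition is given as GI50.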 Activity calls are given as the source filed them. Cut-off read from the data, not from the text of the source: active = GI50 up to about 1.1 µM and inactive = higher.

How the values were obtained:
Assay in all cases: growth of human tumour cells (NCI), 48 h
MDA-MB-231 = tested on: MDA-MB-231
DLD-1 = tested on: DLD-1
NCI-H460 = tested on: NCI-H460
TK-10 = tested on: TK-10
K562 = tested on: K562
SNB-75 = tested on: SNB-75
MDA-N = tested on: MDA-N
OVCAR-3 = tested on: OVCAR-3
LXFL 529 = tested on: LXFL 529
ACHN = tested on: ACHN
KM12 = tested on: KM12
Malme-3M = tested on: Malme-3M
NCI-H226 = tested on: NCI-H226
A498 = tested on: A498
NCI-H23 = tested on: NCI-H23
DMS-273 = tested on: DMS-273
HCC 2998 = tested on: HCC 2998
HL-60 = tested on: HL-60
SF-268 = tested on: SF-268
SK-MEL-5 = tested on: SK-MEL-5

Measured: GI50

Nc1ccc(S(=O)(=O)Nc2cnc3c(Cl)cccc3n2)cc1 [CHLORSULFAQUINOXALINE]
inactive: MDA-MB-231 > 69.7 µM | DLD-1 93.1 µM | NCI-H460 129 µM | TK-10 41.6 µM | K562 23.2 µM | SNB-75 181 µM | MDA-N 24.3 µM | OVCAR-3 167 µM | LXFL 529 31.4 µM | ACHN 107 µM | KM12 147 µM | Malme-3M 164 µM | NCI-H226 163 µM | A498 131 µM | NCI-H23 163 µM | DMS-273 152 µM | HCC 2998 99.5 µM | HL-60 167 µM | SF-268 197 µM | SK-MEL-5 144 µM

Cc1cc(Cl)cc2c1NC(=O)C2(O)CC(=O)c1ccco1 (centres undefined)
inactive: MDA-MB-231 35.3 µM | DLD-1 > 100 µM | NCI-H460 > 100 µM | TK-10 > 100 µM | K562 27.1 µM | SNB-75 55.1 µM | MDA-N 10.4 µM | OVCAR-3 52.4 µM | LXFL 529 > 100 µM | ACHN > 100 µM | KM12 > 75.9 µM | Malme-3M > 48.5 µM | NCI-H226 > 100 µM | A498 62.7 µM | NCI-H23 > 53.7 µM | DMS-273 > 100 µM | HCC 2998 > 100 µM | SF-268 > 100 µM | SK-MEL-5 22.2 µM
